Data reported in patent publication US6737383B1, “Herbicidal oxadiazolidines” (priority 1999, dated 2004).

Legend:
Green foxtail [1] = assay: Test D green foxtail; format: in vivo; details: Postemergence, 0 to 100 scale, 0 no injury, 100 complete control
Green foxtail [2] = assay: Test D green foxtail; format: in vivo; details: Postemergence, 0 to 100 scale
Green foxtail [3] = assay: Test D green foxtail; format: in vivo; details: Postemergence, 0 to 100 scale, 0 no injury, 100 complete control; remark: listed apart in the source
Green foxtail [4] = assay: Test D green foxtail; format: in vivo; details: Postemergence, 0 to 100 scale; remark: listed apart in the source
maize hybrid P33G26 = assay: Test G maize injury with safener-treated seed; details: 28 days after application
How it was run: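 Maize hybrid P33G26 seed, treated with dichlormid, fenchlorazole-ethyl or naphthalic anhydride or left untreated, was sown in soil pots, then sprayed pre-emergence with several compound rates at 310 L/ha. Plants grew in a greenhouse (14 h day, about 27/24 °C day/night), with 4–5 replicates. Injury was scored visually against untreated controls 28 days after application.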

SMILES: CC(C)N(C(=O)n1oc(=O)n(C2CC2)c1=O)c1ccc(F)cc1F [Compound 299]
- Green foxtail plant response rating (Green foxtail [1]; Rate 64 g/ha): 100
- Green foxtail plant response rating (Green foxtail [1]; Rate 125 g/ha): 100
- Plant response rating, Green foxtail (Green foxtail [2]; Rate 250 g/ha): 100
- Plant response rating, Green foxtail (Green foxtail [2]; Rate 500 g/ha): 100
- Plant response rating, Green foxtail (Green foxtail [3]; Rate 64 g/ha): 100
- Plant response rating, Green foxtail (Green foxtail [3]; Rate 125 g/ha): 100
- Plant response rating, Green foxtail (Green foxtail [4]; Rate 250 g/ha): 100
- Plant response rating, Green foxtail (Green foxtail [4]; Rate 500 g/ha): 100

SMILES: C=CCn1c(=O)on(C(=O)N(c2ccc(F)cc2)C(C)C)c1=O [Compound 146]
- Mean plant response rating, maize (maize hybrid P33G26; Safener Dichlormid (seed treatment), Rate 140 g ai/ha): 1 percent control
- Mean plant response rating, maize (maize hybrid P33G26; Safener Dichlormid (seed treatment), Rate 280 g ai/ha): 1 percent control
- Mean plant response rating, maize (maize hybrid P33G26; Safener Dichlormid (seed treatment), Rate 560 g ai/ha): 4 percent control
- Mean plant response rating, maize (maize hybrid P33G26; Safener Dichlormid (seed treatment), Rate 1120 g ai/ha): 4 percent control
- Mean plant response rating, maize (maize hybrid P33G26; Safener Fenchlorazole-ethyl (seed treatment), Rate 140 g ai/ha): 3 percent control
- Mean plant response rating, maize (maize hybrid P33G26; Safener Fenchlorazole-ethyl (seed treatment), Rate 280 g ai/ha): 74 percent control
- Mean plant response rating, maize (maize hybrid P33G26; Safener Fenchlorazole-ethyl (seed treatment), Rate 560 g ai/ha): 78 percent control
- Mean plant response rating, maize (maize hybrid P33G26; Safener Fenchlorazole-ethyl (seed treatment), Rate 1120 g ai/ha): 85 percent control
- Mean plant response rating, maize (maize hybrid P33G26; Safener None, Rate 140 g ai/ha): 49 percent control
- Mean plant response rating, maize (maize hybrid P33G26; Safener None, Rate 280 g ai/ha): 73 percent control
- Mean plant response rating, maize (maize hybrid P33G26; Safener None, Rate 560 g ai/ha): 80 percent control
- Mean plant response rating, maize (maize hybrid P33G26; Safener None, Rate 1120 g ai/ha): 85 percent control
- Mean plant response rating, maize (maize hybrid P33G26; Safener naphthalic anhydride (seed treatment), Rate 140 g ai/ha): 0 percent control
- Mean plant response rating, maize (maize hybrid P33G26; Safener naphthalic anhydride (seed treatment), Rate 1120 g ai/ha): 35 percent control
